Source: ChEMBL document CHEMBL1201862, “PubChem BioAssay data set” (2004)
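48-hour exposure; five concentrations; linearly interpolated endpoints. At the GI50, growth is halved.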 The source made the active and inactive calls. No stated cut-off is given here; in the data, active = GI50 up to about 1.1 µM and inactive = higher.

Key:
Assay in all cases: growth of human tumour cells (NCI), 48 h
[1] = test system: BT-549
[2] = test system: EKVX
[3] = test system: HT-29
[4] = test system: IGROV-1
[5] = test system: LOX IMVI
[6] = test system: M14
[7] = test system: NCI-H23
[8] = test system: RPMI-8226
[9] = test system: RXF 393
[10] = test system: SF-295
[11] = test system: SK-MEL-28
[12] = test system: SK-MEL-5
[13] = test system: SW-620
[14] = test system: T47D
[15] = test system: TK-10
[16] = test system: U-251
[17] = test system: UACC-62
[18] = test system: Malme-3M
[19] = test system: SF-539
[20] = test system: SK-OV-3

Measured: GI50

O=[N+]([O-])c1ccc(C2c3c(O)nc(S)nc3Oc3nc(S)nc(O)c32)cc1
inactive: [1] > 100 µM | [2] > 100 µM | [3] > 100 µM | [4] > 100 µM | [5] > 100 µM | [6] > 100 µM | [7] > 100 µM | [8] > 100 µM | [9] > 100 µM | [10] > 100 µM | [11] > 100 µM | [12] > 100 µM | [13] > 100 µM | [14] > 100 µM | [15] > 100 µM | [16] > 100 µM | [17] > 100 µM

Cc1ccc(/S(Cc2ccccc2)=N\S(=O)(=O)c2ccc(C)cc2)cc1 (centres undefined)
inactive: [1] > 100 µM | [2] > 100 µM | [3] > 100 µM | [6] > 100 µM | [18] > 100 µM | [7] > 100 µM | [8] > 100 µM | [9] > 100 µM | [10] > 100 µM | [19] > 100 µM | [11] > 100 µM | [13] > 100 µM | [14] > 100 µM | [15] > 100 µM | [16] > 100 µM

Cn1c(=O)c2c(nc(Nc3ccc(Cl)cc3)n3c(=O)n(-c4ccccc4)c(=O)n23)n(C)c1=O
inactive: [1] > 100 µM | [2] > 100 µM | [3] > 100 µM | [4] > 100 µM | [5] > 100 µM | [6] > 100 µM | [7] > 100 µM | [8] > 100 µM | [9] > 100 µM | [10] > 100 µM | [19] > 100 µM | [11] > 100 µM | [12] > 100 µM | [13] > 100 µM | [14] > 100 µM | [15] > 100 µM | [16] > 100 µM | [17] > 100 µM

O=C1NC(N2CCOCC2)=N/C1=C\c1ccc(O)cc1
inactive: [1] > 100 µM | [2] > 100 µM | [3] > 100 µM | [4] > 100 µM | [5] > 100 µM | [6] > 100 µM | [18] > 100 µM | [7] > 100 µM | [8] > 100 µM | [9] > 100 µM | [10] > 100 µM | [19] > 100 µM | [11] > 100 µM | [20] > 100 µM | [13] > 100 µM | [14] > 100 µM | [15] > 100 µM | [16] > 100 µM | [17] > 100 µM

COc1cc2c(cc1O)C(=O)O[C@@H]1CC=C3CCN(C)[C@H]3[C@H]21
inactive: [1] > 25 µM | [2] > 25 µM | [3] > 25 µM | [4] > 25 µM | [6] > 25 µM | [18] > 25 µM | [7] > 25 µM | [8] > 25 µM | [9] > 25 µM | [10] > 25 µM | [11] > 25 µM | [12] > 25 µM | [20] > 25 µM | [13] > 25 µM | [14] > 25 µM | [15] > 25 µM | [16] > 25 µM | [17] > 25 µM

CCC(=O)NI1OC(=O)c2ccccc21
inactive: [1] > 100 µM | [2] > 100 µM | [3] > 100 µM | [4] > 100 µM | [5] > 100 µM | [6] > 100 µM | [7] > 100 µM | [8] 45.9 µM | [9] > 100 µM | [10] > 100 µM | [19] > 100 µM | [11] > 100 µM | [12] > 100 µM | [20] > 100 µM | [13] > 100 µM | [14] > 100 µM | [15] > 100 µM | [16] > 100 µM | [17] > 100 µM

COc1cc(-c2oc(/C=N/c3ccccc3)c([N+](=O)[O-])c2-c2ccc(O)c(OC)c2)ccc1O
inactive: [1] 29.6 µM | [2] 25.8 µM | [3] 17.1 µM | [4] 15.4 µM | [5] 9.57 µM | [6] 32.1 µM | [7] 16.3 µM | [8] 25.1 µM | [9] 22.8 µM | [10] 31.6 µM | [19] 17.4 µM | [11] 19.5 µM | [12] 23.7 µM | [20] > 41.8 µM | [13] 22.9 µM | [14] 38.9 µM | [15] 18 µM | [16] 23.4 µM | [17] 17.9 µM

CCCSc1ccc2[nH]c(N3C(=O)/C(=C/c4ccccc4)N=C3c3ccccc3)cc2c1
inactive: [1] 19.9 µM | [2] 19.1 µM | [3] 16.7 µM | [4] 31.9 µM | [5] 20.4 µM | [6] 16.6 µM | [18] 24.2 µM | [7] 23.5 µM | [8] 12.4 µM | [9] 20 µM | [19] 18.1 µM | [11] 32.4 µM | [12] 14.2 µM | [13] 18.7 µM | [14] 22.8 µM | [17] 21.5 µM

CC(C)=CC1C(COC(=O)c2cc3c(cc2Cl)OCO3)C1(C)C (centres undefined)
inactive: [1] 33 µM | [2] 30.4 µM | [3] 33 µM | [4] 45.2 µM | [5] 22.3 µM | [6] 38.7 µM | [18] 14.2 µM | [7] 33.3 µM | [9] 20.8 µM | [10] 34.4 µM | [11] 38.8 µM | [12] 20 µM | [13] 33.1 µM | [14] 39.1 µM | [15] > 100 µM | [16] 26.8 µM | [17] 36.1 µM

O=C(O)C1C(=O)Oc2c(cccc2[N+](=O)[O-])C1O (centres undefined)
inactive: [1] > 100 µM | [2] > 100 µM | [3] > 100 µM | [4] > 100 µM | [5] > 100 µM | [6] > 100 µM | [18] > 100 µM | [7] > 100 µM | [8] > 100 µM | [9] > 100 µM | [10] > 100 µM | [19] > 100 µM | [11] > 100 µM | [12] > 100 µM | [13] > 100 µM | [14] > 100 µM | [15] > 100 µM | [16] > 100 µM | [17] > 100 µM

Cc1ccccc1NC(=O)/C(C#N)=N\Nc1[nH]cnc1C(N)=O
inactive: [1] > 100 µM | [2] 66.8 µM | [3] 38.6 µM | [4] 4.88 µM | [6] 2.66 µM | [18] 4.62 µM | [7] 32.6 µM | [8] 1.83 µM | [9] 15.3 µM | [10] 9.82 µM | [11] 28.7 µM | [12] 35.3 µM | [20] 1.59 µM | [13] 2.89 µM | [14] 25.9 µM | [15] 3.08 µM | [16] 37.1 µM | [17] 12.9 µM

Cc1ccc(C)c(COCCOCn2cc(Br)c(N)nc2=O)c1
inactive: [1] > 100 µM | [2] > 100 µM | [4] > 100 µM | [5] > 100 µM | [6] > 100 µM | [18] > 100 µM | [7] > 100 µM | [9] > 100 µM | [10] > 100 µM | [19] > 100 µM | [11] > 100 µM | [20] > 100 µM | [13] > 100 µM | [14] > 100 µM | [15] > 100 µM | [16] > 100 µM | [17] > 100 µM

O=C(C/C(=N/O)C(F)(F)F)c1cccs1
inactive: [1] > 100 µM | [2] > 100 µM | [3] > 100 µM | [4] > 100 µM | [5] > 100 µM | [6] > 100 µM | [7] > 100 µM | [8] > 100 µM | [9] > 100 µM | [10] > 100 µM | [19] > 100 µM | [11] > 100 µM | [12] > 100 µM | [20] 76.2 µM | [13] > 100 µM | [14] > 100 µM | [15] > 100 µM | [16] > 100 µM | [17] > 100 µM

CC(=O)OC[C@H]1O[C@@H](O[C@H]2[C@H](OC(C)=O)C=CO[C@@H]2COC(C)=O)C(OC(C)=O)[C@H]2OC(C)(C)O[C@H]21 (some centres undefined)
inactive: [1] 36.6 µM | [2] > 100 µM | [3] > 100 µM | [4] > 100 µM | [5] > 100 µM | [6] > 100 µM | [18] > 100 µM | [7] > 100 µM | [9] 2.43 µM | [10] > 100 µM | [19] > 100 µM | [11] > 100 µM | [12] 58.9 µM | [20] > 100 µM | [13] 64.3 µM | [14] 64.4 µM | [15] > 100 µM | [16] > 100 µM | [17] > 100 µM

CCOS(C)(=O)=O [METHANESULFONIC ACID ETHYL ESTER]
inactive: [1] > 100 µM | [2] > 100 µM | [3] > 100 µM | [4] > 100 µM | [5] > 100 µM | [6] > 100 µM | [18] > 100 µM | [7] > 100 µM | [9] > 100 µM | [10] > 100 µM | [19] > 100 µM | [11] > 100 µM | [12] > 100 µM | [20] > 100 µM | [13] > 100 µM | [14] > 100 µM | [15] > 100 µM | [16] > 100 µM | [17] > 100 µM
